In patent publication US20240299492A1, “COMBINATION THERAPIES WITH SIRP ALPHA-BASED CHIMERIC PROTEINS” (Shattuck Labs, Inc., priority 2021, published 2024):

How the values were obtained:
CT26 tumor cells = experiment: In vivo anti-tumor efficacy, CT26 colorectal carcinoma mouse allograft model; parameters: species or system BALB/C mice
Description: The efficacy of the SIRPα-Fc-CD40L chimeric protein was evaluated in combination with a spindle toxin. Towards that, the ability of paclitaxel and chimeric proteins to target and reduce tumor volume in vivo was determined. Briefly, BALB/C mice were inoculated with 500,000 CT26 tumor cells. When tumor volumes were approximately 50 to 60 mm^3 (day 0), the mice were randomly distributed in the following treatment groups: (1) vehicle only control, (2) 300 μg of the SIRPα-Fc-CD40L chimeric protein alone, (3) 24 mg/kg paclitaxel alone, and (4) a combination 300 μg of the SIRPα-Fc-CD40L chimeric protein and 24 mg/kg paclitaxel. The mice were dosed on days 0, 3 and 6 via intraperitoneal injections. Tumors were measured with electronic calipers on day 14 and plotted using the GraphPad Prism software.
The efficacy of the SIRPα-Fc-CD40L chimeric protein was evaluated in combination with an antimetabolite or. Towards that, the ability of 5-fluorouracil and chimeric proteins to target and reduce tumor volume in vivo was determined. Briefly, BALB/C mice were inoculated with 500,000 CT26 tumor cells. When tumor volumes were approximately 50 to 60 mm^3 (day 0), the mice were randomly distributed in the following treatment groups: (1) vehicle only control, (2) 300 μg of the SIRPα-Fc-CD40L chimeric protein alone, (3) 20 mg/kg 5-fluorouracil alone, and (4) a combination 300 μg of the SIRPα-Fc-CD40L chimeric protein and 20 mg/kg 5-fluorouracil. The mice were dosed via intraperitoneal injections as follows: the SIRPα-Fc-CD40L chimeric protein was administered on days 0, 3 and 6; and 5-fluorouracil was administered on days 0, 2 and 4. Tumors were measured with electronic calipers on day 11 and plotted using the GraphPad Prism software.
The efficacy of the SIRPα-Fc-CD40L chimeric protein was evaluated in combination with a topoisomerase I inhibitor. Towards that, the ability of irinotecan and chimeric proteins to target and reduce tumor volume in vivo was determined. Briefly, BALB/C mice were inoculated with 500,000 CT26 tumor cells. When tumor volumes were approximately 50 to 60 mm^3 (day 0), the mice were randomly distributed in the following treatment groups: (1) vehicle only control, (2) 300 μg of the SIRPα-Fc-CD40L chimeric protein alone, (3) 25 mg/kg irinotecan alone, and (4) a combination 300 μg of the SIRPα-Fc-CD40L chimeric protein and 25 mg/kg irinotecan. The mice were dosed on days 0 and 2 via intraperitoneal injections. Tumors were measured with electronic calipers on day 4 and plotted using the GraphPad Prism software.
The efficacy of the SIRPα-Fc-CD40L chimeric protein was evaluated in combination with an anthracycline. Towards that, the ability of doxorubicin and chimeric proteins to target and reduce tumor volume in vivo was determined. Briefly, BALB/C mice were inoculated with 500,000 CT26 tumor cells. When tumor volumes were approximately 50 to 60 mm^3 (day 0), the mice were randomly distributed in the following treatment groups: (1) vehicle only control, (2) 300 μg of the SIRPα-Fc-CD40L chimeric protein alone, (3) 8 mg/kg doxorubicin alone, and (4) a combination 300 μg of the SIRPα-Fc-CD40L chimeric protein and 8 mg/kg doxorubicin. The mice were dosed with the SIRPα-Fc-CD40L chimeric protein on days 0, 3 and 6 via intraperitoneal injections, and with doxorubicin thrice through the tail vein. Tumors were measured with electronic calipers on day 7 and plotted using the GraphPad Prism software.
The efficacy of the SIRPα-Fc-CD40L chimeric protein was evaluated in combination with a platinum compound. Towards that, the ability of cisplatin and chimeric proteins to target and reduce tumor volume in vivo was determined. Briefly, BALB/C mice were inoculated with 500,000 CT26 tumor cells. […]

[1] = system: MM1R human multiple myeloma (MM) cells; experiment: Phagocytosis of MM1R cells by human macrophages (flow cytometry): bortezomib and/or SIRPα-Fc-CD40L; type: cell-based; details: 1 pM bortezomib overnight and/or SIRPα-Fc-CD40L for 4 hours; combination p<0.0001 vs control; FIG. 3A
Description: (§1) Briefly, the MM1R human multiple myeloma (MM) cells were labeled with a green fluorescent tracker and treated with vehicle alone control or 1 pM bortezomib overnight. The following day, the tumor cells were washed in PBS and then co-cultured with human macrophages with or without the SIRPα-Fc-CD40L chimeric protein for 4 hours at 37° C. in the presence of 5% CO2. After this incubation, the cells were harvested and treated with an anti-CD11b antibody (a macrophage marker) and were analyzed using flow cytometry. Positive phagocytosis was determined by the overlap in signals of tumor (the green fluorescent tracker) and macrophage (anti-CD11b antibody staining). A phagocytosis index was calculated by setting the maximum phagocytosis value to 1, and then normalizing all other replicates accordingly. The phagocytosis index was plotted for the indicated treatments.

[2] = system: ARD1 human multiple myeloma (MM) cells; experiment: Phagocytosis of ARD1 cells by human macrophages (flow cytometry): bortezomib and/or SIRPα-Fc-CD40L; type: cell-based; details: 1 pM bortezomib overnight and/or SIRPα-Fc-CD40L for 4 hours; combination p<0.0001 vs control; FIG. 3B
Description: as §1, with “In another experiment,” for “Briefly,”, “ARD1” for “MM1R”

[3] = system: ARD1 human multiple myeloma cells; experiment: Phagocytosis of ARD1 cells by human macrophages (flow cytometry): elotuzumab and/or SIRPα-Fc-CD40L; type: cell-based; details: 1 μg/ml elotuzumab and/or SIRPα-Fc-CD40L (10 μg/ml alone; 10 pg/ml in the combination), 4 hours; combination p<0.05 vs vehicle; FIG. 8
Description: Briefly, the ARD1 human multiple myeloma cells were labeled with a green fluorescent tracker and co-cultured with human macrophages and treated with (1) vehicle alone control, (2) 10 μg/ml of the SIRPα-Fc-CD40L chimeric protein, (3) 1 μg/ml of elotuzumab (an antibody-dependent cellular phagocytosis (ADCP)-proficient anti-SLAMF7 antibody), or (4) 1 μg/ml of elotuzumab and 10 pg/ml of the SIRPα-Fc-CD40L chimeric protein and incubated at 37° C. in the presence of 5% CO2 for 4 hours. After this incubation, the cells were harvested and treated with an anti-CD11b antibody (a macrophage marker) and were analyzed using flow cytometry. Positive phagocytosis was determined by the overlap in signals of tumor (the green fluorescent tracker) and macrophage (anti-CD11b antibody staining). A phagocytosis index was calculated by setting the maximum phagocytosis value to 1, and then normalizing all other replicates accordingly. The phagocytosis index was plotted for the indicated treatments.

[4] = system: ARD1 human multiple myeloma (MM) cells; experiment: Phagocytosis of ARD1 cells by human macrophages (IncuCyte phRodo Red imaging): daratumumab and/or SIRPα-Fc-CD40L; type: cell-based; details: 1 μg/ml daratumumab and/or 10 μg/ml SIRPα-Fc-CD40L, 2 hours, combination p<0.0001 vs vehicle, FIG. 6
Description: Briefly, the ARD1 human multiple myeloma (MM) cells were labeled the IncuCyte phRodo Red cell labeling kit and co-cultured with human macrophages and treated with (1) vehicle alone control, (2) 10 μg/ml of the SIRPα-Fc-CD40L chimeric protein, (3) 1 μg/ml of daratumumab (an antibody-dependent cellular phagocytosis (ADCP)-proficient anti-CD38 antibody), or (4) 1 μg/ml of an daratumumab and 10 μg/ml of the SIRPα-Fc-CD40L chimeric protein and incubated at 37° C. in the presence of 5% CO2 for 2 hours. Cultures were imaged using the IncuCyte time-lapse microscopy system, and positive phagocytosis was determined by an increase in red fluorescent intensity which occurs when the phRodo Red labeled tumor cell is internalized into the acidic macrophage phagosome. A phagocytosis index was calculated by setting the maximum phagocytosis value to 1, and then normalizing all other replicates accordingly. The phagocytosis index was plotted for the indicated treatments.

[5] = system: KMS12B multiple myeloma cells; experiment: Phagocytosis of KMS12B cells by M1 macrophages with activated T cells (flow cytometry): pomalidomide with or without SIRPα-Fc-CD40L; type: cell-based, human; details: 10 μM pomalidomide, CD3/CD28 activated T cells, M1 polarized macrophages, 4 hours; FIG. 7
Description: Briefly, CD14+ monocytes were isolated from human donor PBMCs and cultured with m-CSF (100 ng/ml) for 6 days. On day 6, IFNγ (100 ng/ml) and LPS (10 ng/ml) were added to the cells for an additional 24 hours, generating M1 polarized macrophages. On day 5 of the macrophage differentiation, another vial of PBMCs from the same human donor was thawed, and CD3 T cells were isolated using a magnetic bead isolation kit. These T cells were activated for 2 days with CD3/CD28 T cell magnetic activation beads. On day 7 when both the macrophages and T cells were activated and ready, they were combined with KMS12B multiple myeloma cells, which were labeled with a green fluorescent tracker, with 10 μM pomalidomide and with or without 50 μg/ml of the SIPRα-Fc-CD40L chimeric protein. KMS12B cells incubated with the macrophages and 10 μM pomalidomide, without T cells, were used as a negative control. This coculture was incubated for 4 hours at 37° C., 5% CO2. After this incubation, the cells were harvested and treated with an anti-CD11b antibody (a macrophage marker) and were analyzed using flow cytometry. Positive phagocytosis was determined by the overlap in signals of tumor (the green fluorescent tracker) and macrophage (anti-CD11b antibody staining). A phagocytosis index was calculated by setting the maximum phagocytosis value to 1, and then normalizing all other replicates accordingly. […]

N.N.[Cl][Pt][Cl] [cisplatin]
tumor size (CT26 tumor cells; day 4, 300 μg SIRPα-Fc-CD40L (days 0 and 3) and/or 200 μg cisplatin (day 0), intraperitoneal, FIG. 10E): reduction in tumor size

CC(C)C[C@H](NC(=O)[C@H](Cc1ccccc1)NC(=O)c1cnccn1)B(O)O [bortezomib]
level of phagocytosis (phagocytosis index) compared to the control MM1R cells [1]: increased level of phagocytosis
level of phagocytosis (phagocytosis index) compared to the control ARD1 cells [2]: increased level of phagocytosis

O=C1[O][Pt]2([NH][C@@H]3CCCC[C@H]3[NH]2)[O]C1=O [oxaliplatin]
tumor size (CT26 tumor cells; day 4, 300 μg SIRPα-Fc-CD40L (days 0 and 3) and/or 10 mg/kg oxaliplatin (day 0), intraperitoneal, FIG. 10F): reduction in tumor size

elotuzumab: an antibody-dependent cellular phagocytosis (ADCP)-proficient anti-SLAMF7 antibody
level of phagocytosis (phagocytosis index) compared to the vehicle only-treated ARD1 cells [3]: increased level of phagocytosis

daratumumab: an antibody-dependent cellular phagocytosis (ADCP)-proficient anti-CD38 antibody
level of phagocytosis (phagocytosis index) compared to the vehicle only-treated ARD1 cells [4]: increased level of phagocytosis

Nc1cccc2c1C(=O)N(C1CCC(=O)NC1=O)C2=O (centres unmarked) [pomalidomide]
phagocytosis of KMS12B cells incubated with T cells, macrophages and pomalidomide compared to incubation without T cells (negative control) [5]: increased phagocytosis

CC(=O)O[C@H]1C(=O)[C@@]2(C)[C@H]([C@H](OC(=O)c3ccccc3)[C@]3(O)C[C@H](OC(=O)[C@H](O)[C@@H](NC(=O)c4ccccc4)c4ccccc4)C(C)=C1C3(C)C)[C@]1(OC(C)=O)CO[C@@H]1C[C@@H]2O [paclitaxel]
tumor size (CT26 tumor cells; day 14, 300 μg SIRPα-Fc-CD40L and/or 24 mg/kg paclitaxel, intraperitoneal, days 0, 3 and 6, FIG. 10A): reduction in tumor size

COc1cccc2c1C(=O)c1c(O)c3c(c(O)c1C2=O)C[C@@](O)(C(=O)CO)C[C@@H]3O[C@H]1C[C@H](N)[C@H](O)[C@H](C)O1 [doxorubicin]
tumor size (CT26 tumor cells; day 7, 300 μg SIRPα-Fc-CD40L (intraperitoneal, days 0, 3, 6) and/or 8 mg/kg doxorubicin (thrice, tail vein), FIG. 10D): reduction in tumor size

O=c1[nH]cc(F)c(=O)[nH]1 [5-fluorouracil]
tumor size (CT26 tumor cells; day 11, 300 μg SIRPα-Fc-CD40L (days 0, 3, 6) and/or 20 mg/kg 5-fluorouracil (days 0, 2, 4), intraperitoneal, combination vs vehicle p<0.01, vs 5-fluorouracil alone p<0.05, FIG. 10B): reduction in tumor size

CCc1c2c(nc3ccc(OC(=O)N4CCC(N5CCCCC5)CC4)cc13)-c1cc3c(c(=O)n1C2)COC(=O)[C@]3(O)CC [irinotecan]
tumor size (CT26 tumor cells; day 4, 300 μg SIRPα-Fc-CD40L and/or 25 mg/kg irinotecan, intraperitoneal, days 0 and 2, FIG. 10C): reduction in tumor size
